The source of these data is patent publication US12351574B2, “Selective ligands for modulation of GIRK channels” (Northeastern University, priority 2018, dated 2025).

This test relates to fear memories (freezing behavior). The experiment in a line: cued fear conditioning test. It counts as in vivo, rat. Particulars: for effect on fear acquisition (in words): FIG. 62A. Here is the method: Cued fear conditioning test: On day 1, animals were habituated to the sound attenuating fear conditioning chamber (Kinder Scientific, Poway, CA) for 10 min. Between each animal, the chamber was cleaned with 70% ethanol. On day 2, acquisition of fear was achieved by placing rats back into the chamber for a 120 s acclimation period and then five pairings (120 s inter-trial interval) of the conditioned stimulus (CS; 20 s, 80 dB) followed immediately by the unconditioned shock stimulus (US; 500 ms, 0.8 mA foot shock). On day 3, CS consolidation was assessed by placing the rats back into the chamber with a 120 s acclimation period followed by five presentations of the CS only (20 s, 80 dB) with 120 s inter-trial-intervals. On day 4, extinction was assessed by presenting a 120 s acclimation period followed by 20 trials of the CS (20 s, 80 dB) with 120 s inter-trial-intervals. The same experimenter (SDF) handled the rats during all sessions and was blinded to the treatment. All trials were digitally video-recorded. For this behavioral test and all others, blind scoring was aided by modification of video file names by AIM. Freezing behavior (no visible signs of movement) was scored by SDF during the sound presentation and converted to percentage of total time. The acquisition, expression, extinction and recall of fear memories were assessed in a […] learning paradigm (modified from Johnson, P. L., et al., Pharmacological depletion of serotonin in the basolateral amygdala complex reduces anxiety and disrupts fear conditioning, Pharmacol Biochem Behav, 2015. 138: p. 174-9). Rats were habituated to the sound attenuating fear conditioning chamber on day 1 (Kinder Scientific, Poway, CA) for 10 min. For all experiments, the chamber was cleaned between animals. On day 2 acquisition of fear occurred where the rats were placed back into the chamber and after a 120 s acclimation period received 5 pairings (120 s inter-trial interval) of the conditioned stimulus (CS; 20 s, 80 dB) followed immediately by the unconditioned shock stimulus (US; 500 ms, 0.8 mA foot shock). On day 3 conditioned stimulus (CS) consolidation was assessed by placing the rats back into the chamber with a 120 s acclimation period followed by 5 presentations of the CS only (20 s, 80 dB) separated by 120 s. On day 4 extinction was assessed which consisted of the 120 s acclimation period followed by 20 trials of the CS (20 s, 80 dB) separated by 120 s intervals. On day 5, all animals were assessed for the recall. Animals were placed in the chamber and were presented with 5 tones. The same experimenter handled the rats during all sessions and was blinded to the phenotype. All trials were digitally video-recorded. Freezing behavior (no visible signs of movement) was scored by a blind scorer during the sound presentation and converted to percentage of total time.

The mark [1] stands for this setting: 10 or 30 mg/kg i.p., FIGS. 27, 28.
[2] abbreviates: 10 or 30 mg/kg i.p., after acquisition and 30 min prior to consolidation, FIGS. 27, 28.
The mark [3] stands for this setting: 30 mg/kg, vehicle tone 5 (GAT1521 study), tone 6 (ML297 study).

On to `Cc1cc(NC(=O)Nc2ccc(Br)s2)n(-c2ccccc2)n1` [GAT1508, 1-(5-bromothiophen-2-yl)-3-(3-methyl-1-phenyl-1H-pyrazol-5-yl)urea], for which the “effect on fear acquisition (in words)” value is “no significant effects” (10 mg/kg) and “significant reductions in fear acquisition” (30 mg/kg, early pairings). In addition, the “effect on fear consolidation (in words)” value (10 mg/kg, FIG. 62B) was “no significant effects”. Under setting [1], the “extinction of fear memories versus vehicle (in words)” value is given as “extinguished fear memories much faster”. Further, under setting [2], the “effect on consolidation of fear memories (in words)” value (from here on “effect on consolidation”) was “no effects”. Also, the “recall of the freezing behavior (in words)” value (FIG. 62E) is listed as “No significant changes”. Further, the “tone by which freezing was significantly reduced during extinction” value (GAT1508 group, control group tone 7) is given as 4 tone. The “fear extinction of the freezing behavior (in words)” value (follow-up experiments, FIGS. 62C-62D, 63) is “more efficient extinction of the freezing behavior”.

Take `Cc1cc(NC(=O)Nc2ccc(C)s2)n(-c2ccccc2)n1` [GAT1521, 1-(3-methyl-1-phenyl-1H-pyrazol-5-yl)-3-(5-methylthiophen-2-yl)urea]: the “tone by which freezing was significantly reduced during extinction” value under setting [3] stood at 3 tone. Moreover, the “extinction of fear memories versus vehicle (in words)” value under setting [1] is listed as “significantly reduced overall freezing during extinction”. Also, under setting [2], the “effect on consolidation” value is “affected consolidation of fear memories”.

As for `Cc1cc(NC(=O)Nc2ccc(F)c(F)c2)n(-c2ccccc2)n1` [ML297, reference compound], under “30 mg/kg, FIG. 29”, the “effect on consolidation” value is “no effect” and the “extinction of fear memories versus controls (in words)” value was “no significant differences”. In addition, under setting [3], the “tone by which freezing was significantly reduced during extinction” value was 6 tone.
